In PMC12992715, “Dual interference with host neuropeptide signaling allows parasitoid wasp to hijack host sugar metabolism” (The EMBO Journal, 2025):
No end group written: not given here.

Tests used:
[1] = test system: PxInR, PxGP, PxHK and PxTPS mRNA; assay: qPCR of PxInR, PxGP, PxHK, PxTPS after bovine insulin; assay type: in vivo, Plutella xylostella; conditions: for PxInR relative expression, average: Figure 3D; for PxInR relative expression, average / PxGP relative expression, average: normalised to Pxβ-actin and Pxβ-tubulin; for PxGP relative expression, average / PxGP relative expression: Figure 3E
Excerpt: (§1) To analyse gene expression in different tissues, P. xylostella larvae were dissected under the microscope, followed by the collection of the silk gland, fat body, midgut, haemocytes and central nervous system (CNS, brain and ventral nerve cord). Haemocytes were collected on clean Parafilm membranes with capillaries by bleeding the larvae from a cut proleg. To explore gene expression at different instars of parasitised or non-parasitised larvae, non-parasitised larva was isolated individually using RNA-easy Isolation Reagent (Vazyme). Parasitoid larvae were removed before parasitised hosts were isolated. As for the measurement of other experiments, per larva with different treatments was isolated individually using RNA-easy Isolation Reagent according to the manufacturer’s instructions.
(§2) The quality and concentrations of total RNAs were estimated by electrophoresis and NanoDrop 2000 spectrophotometer (Thermo Fisher Scientific). First-strand cDNAs were synthesised using the ReverTra Ace qPCR RT kit (Toyobo) according to the manufacturer’s instructions. Both β-actin (GenBank Acc. No.: AB282645) and β-tubulin (GenBank Acc. No.: EU127912) of P. xylostella were used as internal controls. Primer sequences used for qPCR analysis are shown in Appendix Table S4. qPCR was performed by using THUNDERBIRD® SYBR qPCR Mix (Toyobo) on the CFX Connect real-time system (Bio-Rad). All qPCR assays were performed using four internal replicates and at least three biological replicates under the following conditions: 95 °C for 60 s and 40 cycles of 95 °C for 15 s and 60 °C for 30 s. Relative gene expression levels were calculated using the 2^−ΔΔCt method.
(§3) Microinjections were performed under a Stemi 2000C microscope (Zeiss) using glass capillary injection needles and an Eppendorf Femtojet (Eppendorf) with a microcontroller (Narishige). To confirm the function of bovine insulin on hosts, 1 μg bovine insulin (Sigma-Aldrich, I0305000) was injected into the middle 3rd instar P. xylostella larvae. To identify the effect of each parasitic factor on hosts, 0.05 FE CvBV or 0.05 VRE venom was injected into the abdomen of the middle 3rd instar P. xylostella larva (Wang et al, [2018]; Yu et al, [2007]). 1 TE teratocytes’ content was microinjected into the early 4th instar P. xylostella larvae. To confirm the function of each synthetic sNPF peptide, 0.005 ng, 0.05 ng, or 0.5 ng of each peptide was injected into the middle 3rd instar P. xylostella larvae in a volume of 0.1 μl/per larva once per day for 3 consecutive days.

[2] = test system: Spodoptera exigua and Antheraea pernyi; conditions: bovine insulin injection, words, ref PMID: 25703302, 34564224; cited from earlier work
Excerpt: page 9: short summary of the existing data, including for instance, which species this experiment has been conducted in and the data linking bovine insulin to activation of insect insulin-like pathways. […] Response: Thank you for pointing out the need to better justify the use of bovine insulin in our experimental design.

P. xylostella larvae [3] = assay: Haemolymph trehalose after bovine insulin; assay type: in vivo, Plutella xylostella; conditions: 1 μg bovine insulin, words
Method: as §3
For P. xylostella larvae, 1 μl of haemolymph from the moth was diluted 60-fold in cold PBS and subjected to trehalose determination. The fat body of P. xylostella larvae was homogenised in 200 μl of cold PBS. […]
Trehalose content determination was performed by the anthrone sulfate method. […] The absorbance of samples was then measured at 630 nm on a SpectraMax® iD5 Multi-Mode Microplate Reader (Molecular Devices), and the trehalose levels were calculated based on the standard curve and normalised by protein content or sample volume.

[4] = test system: PxGP, PxHK and PxTPS mRNA; assay: qPCR of PxGP, PxHK, PxTPS in larvae injected with synthetic sNPF, venom, CvBV or teratocytes; assay type: in vivo, Plutella xylostella
Excerpt: as §1, §2, §3

PxsNPF mRNA = PxsNPF mRNA after injection of venom, CvBV or teratocytes; assay type: in vivo, Plutella xylostella
Excerpt: as §1
The quality and concentrations of total RNAs were estimated by electrophoresis and NanoDrop 2000 spectrophotometer (Thermo Fisher Scientific). First-strand cDNAs were synthesised using the ReverTra Ace qPCR RT kit (Toyobo) according to the manufacturer’s instructions. Both β-actin (GenBank Acc. No.: AB282645) and β-tubulin (GenBank Acc. No.: EU127912) of P. xylostella were used as internal controls. […] Relative gene expression levels were calculated using the 2^−ΔΔCt method. […]

P. xylostella larvae [5] = assay: Circulating haemolymph trehalose after injection of synthetic sNPF peptides, venom, CvBV or teratocyte content; assay type: in vivo, Plutella xylostella; conditions: for effect on haemolymph trehalose level: synthetic PxsNPFs, injected into 3M larvae, measured at 4M, high dosage 0.5 ng per larva, n = 4-6, words
Method: as §3
For P. xylostella larvae, 1 μl of haemolymph from the moth was diluted 60-fold in cold PBS and subjected to trehalose determination. The fat body of P. xylostella larvae was homogenised in 200 μl of cold PBS. Half of the homogenate was centrifuged at 13,000 rpm for 15 min, and the supernatant was used for protein content determination by Bradford Reagent (Invitrogen). The rest was heated at 70 °C for 5 min followed by centrifuging at 13,000 rpm for 15 min, and the supernatant was used for glycogen determination.
Trehalose content determination was performed by the anthrone sulfate method. 15 μL of the sample was incubated with 15 μL of 1% H2SO4 at 90 °C for 10 min, then 15 μL of 30% KOH was added and incubated at 90 °C for 10 min. Finally, 300 μl of 0.2% anthrone (Sigma-Aldrich) solution in 96% H2SO4 was added and incubated at 90 °C for 10 min. All reactions were stopped by immersion in ice. To create a trehalose standard curve, 15 μl of trehalose standards (Sigma-Aldrich) were treated similarly as a sample. Finally, 100 μl of each sample was added to a 96-well plate. The absorbance of samples was then measured at 630 nm on a SpectraMax® iD5 Multi-Mode Microplate Reader (Molecular Devices), and the trehalose levels were calculated based on the standard curve and normalised by protein content or sample volume.

PxHK mRNA in the midgut = assay: Ex vivo midgut incubation with sNPF and signalling inhibitors, PxHK mRNA; assay type: cell-based, Plutella xylostella; conditions: midgut ex vivo, 20 µM sNPF + 10 µM U73122 (PLCβ inhibitor), 25 °C, 1 h; n = 5; words
Method: (§4) The in vitro incubations of fat body or midgut were performed as previously described with minor modifications (Cheng et al, [2022]). The fat bodies and midguts from non-parasitised middle 4th instar P. xylostella larvae were collected in 0.5 mL of PBS. The collected tissues were then preincubated in culture dishes containing TNM-FH medium (HyClone) for 30 min. sNPF peptides or inhibitors were administered to isolated fat body and midgut in vitro using a modified method from a previous study (Oh et al, [2019]). 1 mM stock solution of pertussis toxin (PTX, Tocris Bioscience) or U73122 (MedChemExpress) was dissolved in DMSO (Sigma-Aldrich) and kept at −80 °C. 0.1 ng/µl PTX or 10 µM U73122 were then mixed with 20 µM sNPF-contained TNM-FH medium. Preincubated tissues were incubated in these mixtures at 25 °C for 1 h, followed by total RNA isolation and qPCR.

[6] = test system: PxGP mRNA in the fat body; assay: Ex vivo fat body incubation with sNPF and signalling inhibitors, PxGP mRNA; assay type: cell-based, Plutella xylostella; conditions: 20 µM sNPF + PTX (0.4 µM in legend, 0.1 ng/µl in method), 25 °C, 1 h, n = 6, words
Method: as §4

[7] = target: Plutella xylostella sNPF receptor (PxsNPFR) (Plutella xylostella)

bovine insulin
PxGP expression ([1]; 1 μg bovine insulin, parasitised host, 4M, n = 4-5, words): not reduced by bovine insulin in the parasitised host as in the non-parasitised group | PxInR expression ([1]; 1 μg bovine insulin, whole body, 4M, n = 4-5, non-parasitised and parasitised, words): upregulated in both non-parasitised and parasitised hosts | PxInR relative expression, average ([1]; NP, mean of 5 replicates): 3.425 | PxInR relative expression, average ([1]; P, mean of 4 replicates): 7.591 | PxGP relative expression, average ([1]; NP, mean of 5 replicates): 0.3318 | PxGP relative expression ([1]; NP, replicate 1): 0.3933 | PxGP relative expression ([1]; NP, replicate 2): 0.2777 | PxGP relative expression ([1]; NP, replicate 3): 0.2734 | PxGP relative expression ([1]; NP, replicate 4): 0.4168 | PxGP relative expression ([1]; NP, replicate 5): 0.298 | PxGP relative expression, average ([1]; P, mean of 4 replicates): 3.4733 | PxGP relative expression ([1]; P, replicate 1): 3.51 | PxGP relative expression ([1]; P, replicate 2): 4.4126 | PxGP relative expression ([1]; P, replicate 3): 3.361 | PxGP relative expression ([1]; P, replicate 4): 2.609 | hemolymph trehalose levels [2]: significant reduction in hemolymph trehalose levels | blood trehalose level (P. xylostella larvae [3]; normal (non-parasitised) larvae): reduces the blood trehalose level | haemolymph trehalose level (P. xylostella larvae [3]; parasitised host, 4M, n = 4-5): not reduced by bovine insulin in the parasitised host as in the non-parasitised group

Cotesia vestalis bracovirus [CvBV]
PxGP relative expression, average ([4]; Figure 4B, CvBV injection, qPCR, Pxβ-actin and Pxβ-tubulin reference, relative to PBS (normalizer 6.00), mean of 5 replicates, SD 0.29): 0.87 | PxGP relative expression, average ([4]; Figure 4B, PxGP vs PBS, Pxβ-actin/Pxβ-tubulin reference, mean of 5 replicates): 1.73 | PxHK relative expression, Average ([4]; Figure 4B, PxHK vs PBS, Pxβ-actin/Pxβ-tubulin reference, mean of 5 replicates): 2.64 | PxHK relative expression ([4]; Figure 4B, PxHK vs PBS, Pxβ-actin/Pxβ-tubulin reference, replicate 1): 2.97 | PxHK relative expression ([4]; Figure 4B, PxHK vs PBS, Pxβ-actin/Pxβ-tubulin reference, replicate 2): 2.49 | PxHK relative expression ([4]; Figure 4B, PxHK vs PBS, Pxβ-actin/Pxβ-tubulin reference, replicate 3): 2.41 | PxHK relative expression ([4]; Figure 4B, PxHK vs PBS, Pxβ-actin/Pxβ-tubulin reference, replicate 4): 2.30 | PxHK relative expression ([4]; Figure 4B, PxHK vs PBS, Pxβ-actin/Pxβ-tubulin reference, replicate 5): 3.01 | transcript level of PxHK ([4]; non-parasitised larvae (whole body), CvBV, 3L, n = 5, words): increases the transcript level of PxHK | PxsNPF expression (PxsNPF mRNA; 24 h after injection, n = 3-6, words): an increase in PxsNPF expression 24 h after CvBV injection | PxsNPF relative expression, Average (PxsNPF mRNA; Figure 5K, 3M, average of replicates, vs PBS): 1.99 | increase of circulating trehalose (P. xylostella larvae [5]; 0.05 FE CvBV injected into 3M larvae, at 3L, n = 3-4): 40%

DTRQPVRLRF-NH2 [sPxsNPF-2, synthetic short neuropeptide F-2 of Plutella xylostella]
effect on haemolymph trehalose level (P. xylostella larvae [5]): did not have this effect

COc1ccc2c(c1)CC[C@@H]1[C@@H]2CC[C@]2(C)[C@@H](NCCCCCCN3C(=O)C=CC3=O)CC[C@@H]12 [U73122, reference compound]
effect on sPxsNPF-1-stimulated PxHK mRNA (PxHK mRNA in the midgut): abolished the facilitatory effect of sPxsNPF-1 on PxHK

SVRAPSMRLRF-NH2 [sPxsNPF-3, synthetic short neuropeptide F-3 of Plutella xylostella]
effect on haemolymph trehalose level (P. xylostella larvae [5]): did not have this effect

pertussis toxin [PTX]
effect on sCvsNPF-stimulated PxGP mRNA [6]: decreased the sCvsNPF activation of PxGP

B1: synthetic CvsNPF (Cotesia vestalis short neuropeptide F) (peptide)
peptide: SQRSPSLRLRF-NH2
inhibition of forskolin-stimulated cAMP accumulation in PxsNPFR-expressing HEK293 cells (10 μM forskolin, various peptide concentrations, 15 min; cAMP-Glo), EC50 [7]: 402 nM
